Test results as given in patent publication US9512180B2, “Compstatin analogs” (THE REGENTS OF THE UNIVERSITY OF CALIFORNIA, priority 2012, dated 2016).
“Also recorded” adds a separate entry of the source. Bridge positions count the residues as written; N and C are the ends. Peptide text beside a SMILES is read from it.

Experiments:
[1] = tested on: complement alternative pathway (AP); experiment: C3b ELISA (inhibition of C3b formation); type: biochemical, human; conditions: table 13; read-out: C3b ELISA IC50
Method: (§1) Inhibition of the complement alternative pathway (AP) by compstatin family peptides was assayed by ELISA. Peptides were dissolved in phosphate buffered saline (PBS, 150 mM). Initial peptide concentrations were calculated using the Beer-Lambert Law with an extinction coefficient of 5,500 (1/M·cm) for Trp and 5,470 (1/M·cm) for methylated-Trp present in the sequence, at 280 nm. Nunc Maxisorp 96-well plates were coated with 1 μg lipopolysaccharides (LPS) from Salmonella enteriditis for ˜16 h at room temperature. Plates were washed three times with PBS/0.05% Tween-20 (PBS-T) between each step. Plates were blocked with 4% bovine serum albumin (BSA) in PBS-T for 1 h at 37° C. Serial peptide dilutions were performed in 96-well plates, using gelatin veronal-buffered saline with 5 mM MgCl2 and 10 mM EGTA (GVBS-MgEGTA). Normal human serum (Complement Technology Inc., Tyler, Tex., USA) was diluted in GVBS-MgEGTA and mixed with compstatin serial dilutions to a final concentration of 30%. Serum diluted in GVBS-MgEGTA and GVBS (containing 20 mM EDTA) were used as positive and negative controls for complement activation, respectively. Dilutions were preincubated for 15 minutes at room temperature, transferred to ELISA plates, and incubated for 1 h at 37° C. Generation of C3b and C5b-9 were assayed using horseradish peroxidase (HRP)-conjugated anti-C3 (MP Biomedicals, Solon, Ohio, USA) and anti-05b-9 aEll (Abcam, Cambridge, Mass., USA), respectively. Plates were washed and incubated with either anti-C3-HRP (1:5000 in 1% BSA/PBS-T) or anti-05b-9 (1:1000 in 1% BSA/PBS-T) for 1 h at 37° C. For C5b-9 detection, primary antibody incubation was followed by incubation with anti-mouse-HRP (BioRad, Hercules, Calif., USA) for 1 h at 37° C. (1:5000 in 1% BSA/PBS-T). Bound C3b and C5b-9 were quantified using a 3,3′,5,5′-tetramethylbenzidine substrate solution containing urea hydrogen peroxide in 0.11 M sodium acetate buffer, followed by a 1 N H2SO4 acid stop. Plates were measured spectrophotometrically at 450 nm. Percent inhibition of C3b and C5b-9 deposition was plotted against peptide concentration and the data was fitted to a logistic dose response curve with Prism software (GraphPad, San Diego, Calif., USA) to determine IC50 values.
(§2) In all assays, MgEGTA was used to chelate Ca′ ions required for classical/lectin pathway complement activation, while providing Mg′ necessary for AP activation. ELISAs allow for direct detection of C3b and C5b-9 formed during AP activation, while erythrocyte lysis assays provide a functional assessment of AP-mediated hemolysis in serum. […] Table 9 summarizes the IC50 values derived from the three different assays. […] The relative potencies of the peptides, based on the measured ICH values, are consistent across all three assays (Peptide III˜Peptide VI˜Peptide IX>Peptide I>Parent). Based on the assay conditions used in this study, peptides inhibited C5b-9 formation with moderately better efficacy than formation of C3b, while slightly higher concentrations were necessary to inhibit AP-mediated hemolysis.

[2] = tested on: complement alternative pathway (AP); experiment: Hemolytic assay (rabbit erythrocyte lysis in human serum); type: cell-based; conditions: table 13; read-out: Lysis IC50
Method: Inhibition of complement was also measured via lysis of erythrocytes. Rabbit erythrocytes (Complement Technology Inc., Tyler, Tex., USA) were washed in PBS and resuspended in veronal-buffered saline with 5 mM MgCl2 and 10 mM EGTA (VBS-MgEGTA). Peptide and serum dilutions were prepared as described above, and 1×10^7 erythrocytes were added to each serum/peptide mixture. Erythrocytes diluted in sterile deionized water and in VBS-MgEGTA were used as positive and negative controls for lysis, respectively. Plates were incubated for 20 minutes at 37° C., and centrifuged at 2500×g for 10 minutes.
In all assays, MgEGTA was used to chelate Ca′ ions required for classical/lectin pathway complement activation, while providing Mg′ necessary for AP activation. ELISAs allow for direct detection of C3b and C5b-9 formed during AP activation, while erythrocyte lysis assays provide a functional assessment of AP-mediated hemolysis in serum.

[3] = tested on: complement alternative pathway (AP); experiment: C5b-9 ELISA (inhibition of C5b-9 terminal complex formation); type: biochemical, human; conditions: table 13; read-out: C5b-9 ELISA IC50
Method: as §1, §2

complement system = experiment: Preliminary ELISA-based complement system inhibition assays, human serum; type: biochemical; conditions: preliminary data
Source text: For some of the peptides studied here, W1, W13, R1, and S-1S0, there is experimental evidence for inhibitory activity against hC3. […] The structural rationale was that the positively charged backbone amino group was disrupting the hydrophobic cluster at the termini (spanning residues 11-C2-V3-V4/C12/T13 of native compstatin), which was deemed necessary for binding and activity before the availability of the structure of the C3c-W4A9 complex, and that upon removal of the positive charge by acetylation the hydrophobic cluster was fortified and contributed to the 3-fold increase in activity. […] The peptide with the diserine extension is expected to be active, as the diserine was present at the N-terminus of the original 32-amino acid peptide that was identified in the phage-display and a subsequent study.

[4] = Experimental solubility of analogs (method not described); type: physicochemical; conditions: aqueous environment
hC3 = hC3 (Homo sapiens, UniProt P01024); experiment: Activity measurements of inhibitory activity against hC3 (method not described); conditions: relative to W4A9
hC3, sequence (P01024 23-1663): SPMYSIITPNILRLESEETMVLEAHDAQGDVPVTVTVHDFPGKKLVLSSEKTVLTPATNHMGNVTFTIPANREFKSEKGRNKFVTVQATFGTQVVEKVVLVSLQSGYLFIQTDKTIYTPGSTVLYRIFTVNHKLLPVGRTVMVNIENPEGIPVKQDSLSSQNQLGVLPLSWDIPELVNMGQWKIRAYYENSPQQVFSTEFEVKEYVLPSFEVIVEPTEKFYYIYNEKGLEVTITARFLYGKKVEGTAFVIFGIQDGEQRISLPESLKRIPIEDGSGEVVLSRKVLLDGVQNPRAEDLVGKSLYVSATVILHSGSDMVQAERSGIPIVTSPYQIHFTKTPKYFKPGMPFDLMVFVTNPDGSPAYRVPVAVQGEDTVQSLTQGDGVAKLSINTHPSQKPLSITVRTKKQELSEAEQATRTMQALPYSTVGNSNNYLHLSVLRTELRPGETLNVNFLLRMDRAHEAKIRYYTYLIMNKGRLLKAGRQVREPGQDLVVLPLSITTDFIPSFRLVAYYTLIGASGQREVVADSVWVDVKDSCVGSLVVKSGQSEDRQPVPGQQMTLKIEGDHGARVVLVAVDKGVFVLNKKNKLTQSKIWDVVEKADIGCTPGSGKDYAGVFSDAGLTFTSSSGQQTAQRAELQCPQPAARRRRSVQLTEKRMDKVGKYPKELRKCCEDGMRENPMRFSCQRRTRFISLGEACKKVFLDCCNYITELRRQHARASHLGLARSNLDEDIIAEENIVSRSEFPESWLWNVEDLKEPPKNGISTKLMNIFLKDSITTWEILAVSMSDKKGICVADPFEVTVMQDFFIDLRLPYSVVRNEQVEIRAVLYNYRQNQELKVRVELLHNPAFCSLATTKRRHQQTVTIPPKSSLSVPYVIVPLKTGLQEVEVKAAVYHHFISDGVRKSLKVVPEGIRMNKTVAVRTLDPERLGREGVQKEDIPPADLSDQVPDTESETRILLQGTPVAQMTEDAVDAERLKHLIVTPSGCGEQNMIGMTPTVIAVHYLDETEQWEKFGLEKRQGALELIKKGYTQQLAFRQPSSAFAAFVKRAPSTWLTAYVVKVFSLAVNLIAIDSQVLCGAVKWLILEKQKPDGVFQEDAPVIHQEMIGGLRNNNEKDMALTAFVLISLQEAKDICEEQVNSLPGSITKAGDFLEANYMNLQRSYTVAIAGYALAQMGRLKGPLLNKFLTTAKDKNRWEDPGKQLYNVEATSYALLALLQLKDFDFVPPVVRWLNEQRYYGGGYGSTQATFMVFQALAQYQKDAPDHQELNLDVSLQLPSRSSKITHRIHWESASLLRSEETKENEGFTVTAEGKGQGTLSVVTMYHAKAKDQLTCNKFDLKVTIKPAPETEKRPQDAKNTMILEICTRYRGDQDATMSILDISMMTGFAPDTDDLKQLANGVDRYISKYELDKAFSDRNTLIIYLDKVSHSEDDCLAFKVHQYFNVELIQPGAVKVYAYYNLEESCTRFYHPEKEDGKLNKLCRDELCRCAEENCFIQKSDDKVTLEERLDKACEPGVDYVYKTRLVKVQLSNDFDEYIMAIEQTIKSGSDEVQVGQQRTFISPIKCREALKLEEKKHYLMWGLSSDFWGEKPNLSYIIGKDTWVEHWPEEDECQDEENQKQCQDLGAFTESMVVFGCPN

Row | Compound | IC50 [1] | IC50 [2] | IC50 [3] | inhibitory activity in human serum (in words) (complement system) | solubility (in words) [4] | inhibitory activity against hC3 (in words) (hC3)
1 | CC[C@H](C)[C@H](NC(=O)[C@H](CCCNC(=N)N)NC(=O)[C@H](CCC(=O)O)NC(C)=O)C(=O)N[C@H]1CSSC[C@@H](C(=O)N[C@H](C(N)=O)[C@@H](C)O)NC(=O)[C@H](CCCNC(=N)N)NC(=O)[C@H](Cc2c[nH]cn2)NC(=O)[C@H](C)NC(=O)CNC(=O)[C@H](Cc2c[nH]c3ccccc23)NC(=O)[C@H](CC(=O)O)NC(=O)[C@H](CCC(N)=O)NC(=O)[C@H](Cc2c[nH]c3ccccc23)NC(=O)[C@H](C(C)C)NC1=O [Peptide 3.1, Ac-ER-ICV WQDWGA HRCT-NH2] | 900 ± 100 nM | 900 ± 200 nM | 500 ± 100 nM | – | – | –
2 | CC(=O)N[C@@H](CC(N)=O)C(=O)N[C@@H](CC(N)=O)C(=O)N[C@@H](CC(C)C)C(=O)N[C@H]1CSSC[C@@H](C(=O)N[C@H](C(N)=O)[C@@H](C)O)NC(=O)[C@H](CCCNC(=N)N)NC(=O)[C@H](Cc2c[nH]cn2)NC(=O)[C@H](C)NC(=O)CNC(=O)[C@H](Cc2c[nH]c3ccccc23)NC(=O)[C@H](CC(=O)O)NC(=O)[C@H](CCC(N)=O)NC(=O)[C@H](Cc2c[nH]c3ccccc23)NC(=O)[C@H](C(C)C)NC1=O [Peptide 3.2, Ac-NN-LCV WQDWGA HRCT-NH2] (Ac-NNLCVWQDWGAHRCT-NH2; disulfide 4-14) | 600 ± 100 nM | 300 ± 100 nM | 500 ± 100 nM | – | – | –
3 | CC(=O)N[C@@H](CC(N)=O)C(=O)N[C@@H](CCCNC(=N)N)C(=O)N[C@@H](CC(C)C)C(=O)N[C@H]1CSSC[C@@H](C(=O)N[C@H](C(N)=O)[C@@H](C)O)NC(=O)[C@H](CCCNC(=N)N)NC(=O)[C@H](Cc2c[nH]cn2)NC(=O)[C@H](C)NC(=O)CNC(=O)[C@H](Cc2c[nH]c3ccccc23)NC(=O)[C@H](CC(=O)O)NC(=O)[C@H](CCC(N)=O)NC(=O)[C@H](Cc2c[nH]c3ccccc23)NC(=O)[C@H](C(C)C)NC1=O [Peptide 3.3, Ac-NR-LCV WQDWGA HRCT-NH2] (Ac-NRLCVWQDWGAHRCT-NH2; disulfide 4-14) | 600 ± 100 nM | 300 ± 100 nM | 500 ± 100 nM | – | – | –
4 | CC[C@H](C)[C@H](NC(=O)[C@H](CO)NC(=O)[C@H](CCCNC(=N)N)NC(C)=O)C(=O)N[C@H]1CSSC[C@@H](C(=O)N[C@H](C(N)=O)[C@@H](C)O)NC(=O)[C@H](CCCNC(=N)N)NC(=O)[C@H](Cc2c[nH]cn2)NC(=O)[C@H](C)NC(=O)CNC(=O)[C@H](Cc2c[nH]c3ccccc23)NC(=O)[C@H](CC(=O)O)NC(=O)[C@H](CCC(N)=O)NC(=O)[C@H](Cc2c[nH]c3ccccc23)NC(=O)[C@H](C(C)C)NC1=O [Peptide 3.4, Ac-RS-ICV WQDWGA HRCT-NH2] | 700 ± 100 nM | 300 ± 100 nM | 600 ± 100 nM | – | – | –
5 | CC[C@H](C)[C@H](NC(=O)[C@H](CO)NC(=O)[C@H](CO)NC(C)=O)C(=O)N[C@H]1CSSC[C@@H](C(=O)N[C@H](C(N)=O)[C@@H](C)O)NC(=O)[C@H](CCCNC(=N)N)NC(=O)[C@H](Cc2c[nH]cn2)NC(=O)[C@H](C)NC(=O)CNC(=O)[C@H](Cc2c[nH]c3ccccc23)NC(=O)[C@H](CC(=O)O)NC(=O)[C@H](CCC(N)=O)NC(=O)[C@H](Cc2c[nH]c3ccccc23)NC(=O)[C@H](C(C)C)NC1=O [Peptide IV, Ac-SS-ICV WQDWGA HRCT-NH2] | – | – | – | higher than those of native compstatin and slightly lower than those of the W4A9 analog | – | –
6 | CC(=O)N[C@@H](Cc1c[nH]c2ccccc12)C(=O)N[C@H]1CSSC[C@@H](C(=O)N[C@@H](Cc2c[nH]c3ccccc23)C(N)=O)NC(=O)[C@H](CCCNC(=N)N)NC(=O)[C@H](Cc2c[nH]cn2)NC(=O)[C@H](C)NC(=O)CNC(=O)[C@H](Cc2c[nH]c3ccccc23)NC(=O)[C@H](CC(=O)O)NC(=O)[C@H](CCC(N)=O)NC(=O)[C@H](Cc2c[nH]c3ccccc23)NC(=O)[C@H](C(C)C)NC1=O [Peptide W1W13] (Ac-WCVWQDWGAHRCW-NH2; disulfide 2-12) | – | – | – | – | slightly reduced activities and solubilities | slightly reduced activities
7 | CC(=O)N[C@@H](Cc1c[nH]c2ccccc12)C(=O)N[C@H]1CSSC[C@@H](C(=O)N[C@H](C(N)=O)[C@@H](C)O)NC(=O)[C@H](CCCNC(=N)N)NC(=O)[C@H](Cc2c[nH]cn2)NC(=O)[C@H](C)NC(=O)CNC(=O)[C@H](Cc2c[nH]c3ccccc23)NC(=O)[C@H](CC(=O)O)NC(=O)[C@H](CCC(N)=O)NC(=O)[C@H](Cc2c[nH]c3ccccc23)NC(=O)[C@H](C(C)C)NC1=O [Peptide W1] (Ac-WCVWQDWGAHRCT-NH2; disulfide 2-12) | – | – | – | – | good solubility | near-W4A9 inhibitory activity
8 | CC[C@H](C)[C@H](NC(C)=O)C(=O)N[C@H]1CSSC[C@@H](C(=O)N[C@@H](Cc2c[nH]c3ccccc23)C(N)=O)NC(=O)[C@H](CCCNC(=N)N)NC(=O)[C@H](Cc2c[nH]cn2)NC(=O)[C@H](C)NC(=O)CNC(=O)[C@H](Cc2c[nH]c3ccccc23)NC(=O)[C@H](CC(=O)O)NC(=O)[C@H](CCC(N)=O)NC(=O)[C@H](Cc2c[nH]c3ccccc23)NC(=O)[C@H](C(C)C)NC1=O [Peptide W13] (Ac-ICVWQDWGAHRCW-NH2; disulfide 2-12) | – | – | – | – | slightly reduced activities and solubilities; also recorded: solubility problems in aqueous environment | slightly reduced activities
